From patent publication US12544371B2, “Methods and compositions for treating acute lung injury and acute respiratory distress syndrome” (CalciMedica, Inc., priority 2020, dated 2026)
Where two headings read alike, the source gives them in different places.

Key:
[1] = Phase 2 open-label study in acute pancreatitis with SIRS and hypoxemia (Compound 1 Test 201); type: in vivo, human
Protocol: A Phase 2, open-label, dose-response, multi-center study of Compound 1 was conducted in patients with AP and accompanying SIRS and hypoxemia (Compound 1 Test 201). One patient was randomized having SIRS alone at Screening. The primary objective of the study was to evaluate safety and tolerability; the secondary objective was to evaluate efficacy and the PK profile of Compound 1.
The study had 2 phases; the Initial Phase consisted of 2 concurrently enrolled cohorts and the Second Phase consisted of 2 concurrently enrolled cohorts. In total, it was planned to have 4 Cohorts containing 24 adult male and female patients with AP and accompanying SIRS and hypoxemia. In the Initial Phase, 4 female patients were to be randomized in a 3:1 ratio to receive Compound 1+Supportive Care (SC) or SC alone (Cohort 1). Concurrently, 4 male patients were to be randomized in a 3:1 ratio to receive Compound 1+SC or SC alone (Cohort 2). Doses were to be 1.0 mg/kg on Day 1 and 1.4 mg/kg daily on Days 2, 3 and 4 (low dose regimen). In the Second Phase, 8 female patients were to be randomized in a 3:1 ratio to receive Compound 1+SC or SC alone (Cohort 3). Concurrently, 8 male patients were to be randomized in a 3:1 ratio to receive Compound 1+SC or SC alone (Cohort 4). Planned doses for both Cohorts 3 and 4 were to be 2.08 mg/kg daily on Days 1 and 2 and 1.6 mg/kg daily on Days 3 and 4 (high dose regimen).
The decision to start Cohort 3 in the Second Phase was made after study personnel reviewed the available efficacy, safety and tolerability data from Cohort 1 and discussed this with the Principal Investigator (PI). […] Cohort 3, therefore, received the same dose level and schedule as Cohort 1, […] on Day 1 and 1.4 mg/kg daily on Days 2, 3 and 4. The decision to start Cohort 4 in the Second Phase of the study was made after study personnel reviewed the available efficacy, safety and tolerability data from Cohort 2 and discussed this with the Principal Investigator. Cohort 4, therefore, received the original planned dose level and schedule; 2.08 mg/kg daily on Days 1 and 2 and 1.6 mg/kg daily on Days 3 and 4.
The first infusion of Compound 1 was started within 6 (up to 8) hours of the patient or LAR providing informed consent and was administered as a continuous IV infusion over 4 hours. Subsequent infusions were to be started every 24 hours (±1 hour) from the start of the first infusion.

[2] = Mouse TLCS-induced and FAEE-induced pancreatitis models; type: in vivo
Text: (§1) Potential efficacy of Compound 1 in treating acute lung injury was established in three diverse in vivo models of AP that cause both pancreatic damage and lung inflammation (TLCS-induced, FAEE-induced, and caerulein-induced acute pancreatitis models).

[3] = tested on: 3T3; assay: In vitro 3T3 phototoxicity; type: cell-based
[4] = In vivo micronucleus study (bone marrow micronucleus and liver Comet assays); conditions: rats
[5] = cited from earlier work
[6] = tested on: IL-17 release by human PBMCs; assay: IL-17 release by human PBMCs, isolated cell assay; type: cell-based; conditions: PBMC, SEM (n), read-out: Compound 1 IC50, IL-17 release by human PBMCs
Text: (§2) CRAC channels may play a proximal role in a calcium-calcineurin pathway leading to cytokine release in immune cells.

[7] = tested on: human peripheral blood lymphocytes; assay: In vitro micronucleus assay; type: cell-based
[8] = Repeat-dose toxicity study in rats; type: in vivo; conditions: rat
[9] = Long-term extension study of SAD and MAD subjects; type: in vivo, human
Text: Subjects in Groups 4 and 5 of the SAD study and Groups 1 and 2 of the MAD study who received Compound 1 were followed for 1 year in a long-term extension study to assess for adverse events and serious adverse events. In addition, PK levels were drawn in all 4 groups on Day 270 to further characterize the terminal phase and the prolonged period of residual drug level.

[10] = tested on: IL-2 released from human PBMCs; assay: Cytokine released from human PBMCs: IL-2; type: cell-based
Text: as §2

[11] = Mouse caerulein-induced pancreatitis model; type: in vivo; conditions: single IP dose
Text: as §1

[12] = tested on: IL-1β released from human PBMCs; assay: Cytokine released from human PBMCs: IL-1β; type: cell-based
Text: as §2

Question: Which results are given for `Cc1cccc(F)c1C(=O)Nc1cnc(-c2cc3c(cc2Cl)OC(F)(F)O3)cn1` [Compound 1, N-(5-(6-Chloro-2,2-difluorobenzo[d][1,3]dioxol-5-yl)pyrazin-2-yl)-2-fluoro-6-methylbenzamide]?
Answer: Discharge IL-6 levels, patients with 150 pg/mL ≤ IL-6 < 1000 pg/mL ([1]; 2a High Dose Regimen + SC, admission 1): 1; Discharge IL-6 levels, patients with IL-6 ≥ 1000 pg/mL ([1]; 2a High Dose Regimen + SC, admission 2): 0; Discharge IL-6 levels, patients with IL-6 ≥ 1000 pg/mL ([1]; 2a Low Dose Regimen + SC, admission 0): 0; Discharge IL-6 levels, patients with 150 pg/mL ≤ IL-6 < 1000 pg/mL ([1]; 2a Low Dose Regimen + SC, admission 4): 0; patients in whom IL-6 levels decreased to below 150 pg/mL ([1]; Tests 201 and 202 pooled, maximum IL-6 ≥150 pg/mL in the first 24 hours): 7 of 8; procalcitonin at discharge ([1]; first critically ill AP patient): 0.24 ng/mL; IL-6 at 120 hrs ([1]; first critically ill AP patient, IL-6 >7296 pg/mL at study entry): 66 pg/mL; TEAEs with causality considered Possible (Chromaturia) ([1]; high dose regimen+SC): 1 TEAE; patients with SAEs ([1]; high dose regimen+SC, 1 of 6): 17%; patients with Acute Respiratory Distress Syndrome ([1]; high dose regimen+SC, 2 of 6): 33%; patients with Confusional State ([1]; high dose regimen+SC, 2 of 6): 33%; patients with Malnutrition ([1]; high dose regimen+SC, 2 of 6): 33%; patients with severe TEAEs ([1]; high dose regimen+SC, 2 of 6): 33%; patients with treatment-emergent AEs (TEAEs) ([1]; high dose regimen+SC, 5 of 6 patients): 83%; patients with TEAEs leading to discontinuation of the study drug ([1]; high dose regimen+SC, 3 TEAEs): 2 patients; deaths during the study ([1]; high dose regimen+SC, Hypoxic-Ischemic Encephalopathy, causality Unrelated): 1 death; IL-6 levels in patients ([1]; in vivo): marked reduction; respiratory dysfunction in patients ([1]; in vivo): beneficial effects; safety in critically ill patients ([1]; intravenous, 90 days in patients with AP, SIRS plus hypoxemia): safe; changes in vital signs, oxygenation, and laboratory values ([1]; low dose or high dose regimen): no untoward changes; safety and tolerability ([1]; low dose regimen+SC and high dose regimen+SC): well tolerated; patients with severe TEAEs ([1]; low dose regimen+SC, 0 of 8): 0%; patients with Headache ([1]; low dose regimen+SC, 2 of 8): 25%; patients with Hypokalemia ([1]; low dose regimen+SC, 2 of 8): 25%; patients with SAEs ([1]; low dose regimen+SC, 2 of 8): 25%; patients with treatment-emergent AEs (TEAEs) ([1]; low dose regimen+SC, 7 of 8 patients): 88%; procalcitonin levels versus the standard of care ([1]; phase 2a study patients): did not increase; procalcitonin at discharge ([1]; second critically ill AP patient): 0.30 ng/mL; IL-6 at 120 hrs ([1]; second critically ill AP patient, IL-6 1021 pg/mL at study entry): 83 pg/mL; effect of timing of administration on minimizing pancreatic injury ([2]; administered early in the course of disease, later administration retains effectiveness): may be more effective; lung myeloperoxidase; pancreas trypsin activity, myeloperoxidase activity and histopathological indices ([2]; mouse TLCS-induced and FAEE-induced pancreatitis, two IP doses): markedly reduced; phototoxicity, in vitro 3T3 [3]: potentially phototoxic; DNA reactivity, bone marrow micronucleus and liver Comet assays [4]: no evidence of DNA reactivity; cytokine levels in serum and lung ([5]; animal models): decreases; lung inflammation in animal models ([5]; animal models): protect against lung inflammation; efficacy following i.p. injection ([5]; mice, Wen et al. 2015): effective; efficacy following 4-hour i.v. infusion ([5]; rats, Waldron et al. 2019): effective; IC50 [6]: 122 ± 36 nM; micronucleus assay result [7]: weakly positive/equivocal; NOAEL ([8]; in vivo, repeat-dose, rats, read-out: no observable adverse effect level (NOAEL)): 25 mg/kg/day; local irritation at the injection site ([8]; repeat-dose toxicity study): no evidence of compound-related or vehicle-related local irritation; number of mild AEs in the extension study ([9]; 365 days): 1; serious adverse events and adverse events rated moderate or severe, long-term follow-up ([9]; healthy subjects followed for 365 days): safe and no serious adverse events and no adverse events rated moderate or severe in intensity and no SAEs or AEs rated moderate or severe in intensity; IC50 ([10]; Homo sapiens, PBMC, mean of replicates, read-out: Mean IC50, IL-2 released from human PBMCs): 59 nM; IC50 ([10]; Homo sapiens, PBMC, single replicates, read-out: Replicate IC50 values, IL-2 released from human PBMCs): 71 nM; IC50 ([10]; single replicates, read-out: Replicate IC50 values, IL-2 released from human PBMCs): 47 nM; lung myeloperoxidase; pancreas trypsin activity, myeloperoxidase activity and histopathological indices [11]: markedly reduced; IC50 ([12]; Homo sapiens, PBMC, mean of replicates, read-out: Mean IC50, IL-1β released from human PBMCs): 240 nM; IC50 ([12]; Homo sapiens, PBMC, single replicates, read-out: Replicate IC50 values, IL-1β released from human PBMCs): 264 nM; IC50 ([12]; single replicates, read-out: Replicate IC50 values, IL-1β released from human PBMCs): 217 nM
